What was measured:
[1] = test system: NPCs of micropore-supported nuclear envelope (NE); assay: Steady-state SECM approach-curve measurement of NPC permeability to GRn; type: in vitro ADME, Xenopus laevis; settings: SECM approach curve at centre of micropore-supported NE patch, 10 μm-diameter micropipet, MIB; 8.6 μM GR25 or 130 μM GR5; finite element fit, homogeneous model; fit uncertainty ±20%
Description: The nucleus was isolated from the stage VI oocyte of an adult female X. laevis frog (Ecocyte Bioscience, Austin, Texas) to spread the NE on a microporous Si3N4 membrane, as reported elsewhere.[24] The large nucleus (∼0.4 mm in diameter) was isolated in the isotonic 1.5% PVP solution of mock intracellular buffer (MIB) at pH 7.4. MIB contains 90 mM KCl, 10 mM NaCl, 2 mM MgCl2, 1.1 mM EGTA, 0.15 mM CaCl2, and 10 mM HEPES, where free Ca^2+ was buffered at the physiological level of ∼200 nM in oocytes.[39] The spread NE was adhered to the membrane treated with Cell-Tak (Corning, Corning, New York).
A home-built SECM instrument[40] with a potentiostat (CHI 7042E, CH Instruments, Austin, Texas) was controlled by using a custom LabVIEW program (National Instruments, Austin, Texas).[41] Tapered micropipets were obtained from borosilicate glass capillaries (o.d./i.d. = 1.0 mm/0.58 mm, 10 cm in length) using a CO2-laser capillary puller (model P-2000 Sutter Instrument, Novato, California). […]
We employed DNNS-doped micropipets to measure the similar steady-state permeability of the NPCs to GRn. […] The strong transient response to GR25 is attributed to the dissociation of GR25 from the NPC as induced by an SECM tip and was investigated quantitatively by chronoamperometry below to confirm strong NPC–GR25 interactions. […]

[2] = extra-thermodynamic assumption (tetraphenylarsonium/tetraphenylborate); cited from earlier work
Excerpt: We calibrated the potential of the NB phase against the aqueous phase by using an extra-thermodynamic assumption (Figure 3) to calculate the free energy change in GRn transfer, as discussed later. Specifically, it was assumed that the free energies of tetraphenylarsonium and tetraphenylborate transfer across the interface are identical.[36] […] Half-wave and formal potentials are identical for electrochemically reversible transfer of tetrabutylammonium.

| steady-state permeability, kss, through the NE [1] | Compound | formal potential of transfer across the NB/water interface [2] [V] |
| --- | --- | --- |
| 7.2 × 10^–3 cm/s | N=C(N)NCCC[C@H](NC(=O)CNC(=O)[C@H](CCCNC(=N)N)NC(=O)CNC(=O)[C@H](CCCNC(=N)N)NC(=O)CNC(=O)[C@H](CCCNC(=N)N)NC(=O)CNC(=O)[C@H](CCCNC(=N)N)NC(=O)CNC(=O)[C@H](CCCNC(=N)N)NC(=O)CNC(=O)[C@H](CCCNC(=N)N)NC(=O)CNC(=O)[C@H](CCCNC(=N)N)NC(=O)CNC(=O)[C@H](CCCNC(=N)N)NC(=O)CNC(=O)[C@H](CCCNC(=N)N)NC(=O)CNC(=O)[C@H](CCCNC(=N)N)NC(=O)CNC(=O)[C@H](CCCNC(=N)N)NC(=O)CNC(=O)[C@H](CCCNC(=N)N)NC(=O)CNC(=O)[C@H](CCCNC(=N)N)NC(=O)CNC(=O)[C@H](CCCNC(=N)N)NC(=O)CNC(=O)[C@H](CCCNC(=N)N)NC(=O)CNC(=O)[C@H](CCCNC(=N)N)NC(=O)CNC(=O)[C@H](CCCNC(=N)N)NC(=O)CNC(=O)[C@H](CCCNC(=N)N)NC(=O)CNC(=O)[C@H](CCCNC(=N)N)NC(=O)CNC(=O)[C@H](CCCNC(=N)N)NC(=O)CNC(=O)[C@H](CCCNC(=N)N)NC(=O)CNC(=O)[C@H](CCCNC(=N)N)NC(=O)CNC(=O)[C@H](CCCNC(=N)N)NC(=O)CNC(=O)[C@H](CCCNC(=N)N)NC(=O)CN)C(=O)O [GR25] | – |
| – | CCCC[N+](CCCC)(CCCC)CCCC [tetrabutylammonium] | 0.29 |
